According to the CheMixHub viscosity set:
Values joined by “and” are separate entries in the source; they are usually repeats but may differ in a detail not shown here. Equal values may be shown once.

Assay: xn = mol fraction of the nth substance listed

C1CC[NH2+]C1.CCCCCCCC(=O)[O-] + O
viscosity [mPa·s], 101 kPa
Settings | x1 = 0.1001 | x1 = 0.1939 | x1 = 0.3059 | x1 = 0.3999 | x1 = 0.5006 | x1 = 0.56 | x1 = 0.7293 | x1 = 0.8443
293.15 K | 19.1 | 30.6 | 44.2 | 53 | 58.7 | 61.3 | 67.6 | 70.6
298.15 K | 17 | 28.7 | 38.7 | 45.6 | 50.2 | 51.77 | 57.23 | 60.69
303.15 K | 15.36 | 22.52 | 32.46 | 37.47 | 40.91 | 42.49 | 46.05 | 48.99
308.15 K | 13.5 | 19.87 | 28.64 | 32.64 | 35.5 | 36.88 | 39.52 | 42.04
313.15 K | 11.56 | 17.09 | 24.55 | 27.65 | 29.82 | 30.62 | 32.72 | 34.71

C=CCC[n+]1ccn(CCCC)c1.[Br-] + O
viscosity [mPa·s], 101.33 kPa
Settings | x1 = 0.0008989 | x1 = 0.00189 | x1 = 0.003585 | x1 = 0.005487 | x1 = 0.007167 | x1 = 0.008848
293.15 K | 1.032 | 1.064 | 1.12 | 1.182 | 1.24 | 1.289
298.15 K | 0.915 | 0.943 | 0.988 | 1.046 | 1.094 | 1.137
303.15 K | 0.818 | 0.844 | 0.883 | 0.931 | 0.975 | 1.011
308.15 K | 0.736 | 0.758 | 0.795 | 0.837 | 0.874 | 0.902
313.15 K | 0.667 | 0.687 | 0.719 | 0.757 | 0.789 | 0.815

C=O + O
viscosity [mPa·s], 101 kPa
Settings | x1 = 0.03 | x1 = 0.062 | x1 = 0.13 | x1 = 0.2 | x1 = 0.29 | x1 = 0.37
293.15 K | 1.13 | 1.26 | 1.54 | 1.95 | – | –
303.15 K | 0.91 | 1.01 | 1.25 | 1.54 | – | –
313.15 K | 0.74 | 0.82 | 1.01 | 1.24 | – | –
323.15 K | 0.61 | 0.68 | 0.83 | 1.01 | 1.61 | 2.11

CC1(C)SC2C(NC(=O)C(N)c3ccccc3)C(=O)N2C1C(=O)O (stereo not drawn) + O
viscosity, 101 kPa
Settings | x1 = 9e-06 | x1 = 1e-05 | x1 = 2e-05 | x1 = 3.2e-05 | x1 = 3.6e-05 | x1 = 4e-05 | x1 = 5e-05 | x1 = 6.8e-05 | x1 = 7e-05 | x1 = 7.2e-05
305.15 K | 0.7656 mPa·s | 0.7569 mPa·s | 0.7618 mPa·s and 0.763 mPa·s | 0.7637 mPa·s | 0.7729 mPa·s | 0.7702 mPa·s | 0.7649 mPa·s | 0.7656 mPa·s | 0.773 mPa·s | 0.7701 mPa·s
310.15 K | 0.7019 mPa·s | 0.6941 mPa·s | 0.6924 mPa·s and 0.6965 mPa·s | 0.6948 mPa·s | 0.6993 mPa·s | 0.6989 mPa·s | 0.6964 mPa·s | 0.6976 mPa·s | 0.7041 mPa·s | 0.7032 mPa·s
315.15 K | 0.6419 mPa·s | 0.6361 mPa·s | 0.6342 mPa·s and 0.6376 mPa·s | 0.6356 mPa·s | 0.6442 mPa·s | 0.6407 mPa·s | 0.6381 mPa·s | 0.6398 mPa·s | 0.6421 mPa·s | 0.6399 mPa·s

CCCCOCCOCCO + O
viscosity [mPa·s], 101 kPa
Settings | 293.15 K | 303.15 K | 313.15 K | 323.15 K
x1 = 0.01221 | 1.52 | 1.15 | 0.908 | 0.738
x1 = 0.02709 | 2.26 | 1.64 | 1.27 | 1.02
x1 = 0.04539 | 3.18 | 2.31 | 1.76 | 1.38
x1 = 0.0689 | 4.35 | 3.1 | 2.32 | 1.79
x1 = 0.09981 | 5.57 | 3.93 | 2.88 | 2.19
x1 = 0.1428 | 6.78 | 4.74 | 3.44 | –
x1 = 0.2062 | 7.94 | – | 3.88 | 2.87
x1 = 0.3078 | 8.42 | 5.78 | – | 3.07
x1 = 0.4 | – | – | – | 3.195
x1 = 0.4037 | 8.24 | 5.75 | – | 3.08
x1 = 0.5015 | 7.84 | 5.55 | 4.04 | 3.02
x1 = 0.6107 | 7.35 | 5.27 | 3.86 | 2.91
x1 = 0.705 | 6.94 | 5 | 3.7 | 2.81
x1 = 0.7958 | 6.56 | 4.76 | 3.54 | 2.71
x1 = 0.8932 | 6.2 | 4.49 | 3.38 | 2.61

CCCCn1cc[n+](C)c1.F[B-](F)(F)F + O
101 kPa
Settings | viscosity [mPa·s]
298.15 K, x2 = 0.1036 | 80.9
298.15 K, x2 = 0.6979 | 9.53
308.15 K, x2 = 0.6004 | 8.69
313.15 K, x2 = 0.5014 | 8.98
318.15 K, x2 = 0.4001 | 9.72
318.15 K, x2 = 0.5014 | 7.77
323.15 K, x2 = 0.4001 | 8.41

CO/N=C(\C(=O)N[C@@H]1C(=O)N2C(C(=O)O)=C(C[N+]3(C)CCCC3)CS[C@H]12)c1csc(N)n1.Cl.[Cl-] + O
Settings | viscosity [mPa·s]
293.15 K, 101.33 kPa, x1 = 0.002414 | 1.235

O=C[C@H](O)[C@H](O)[C@H](O)CO + O
298.15 K, 101 kPa
Settings | viscosity [mPa·s]
x1 = 0.003513 | 0.95
x1 = 0.01898 | 1.292

O=P([O-])(O)O.[Na+] + O
viscosity [mPa·s]
Settings | 298.15 K | 303.15 K | 308.15 K | 313.15 K
101 kPa, x1 = 0.0018 | 0.9216 | 0.8373 | 0.7482 | –
101 kPa, x1 = 0.0054 | 0.9881 | 0.887 | 0.8017 | –
101 kPa, x1 = 0.0089 | 1.077 | 0.9691 | 0.8669 | –
101 kPa, x1 = 0.012 | 1.17 | 1.053 | 0.9301 | –
101 kPa, x1 = 0.016 | 1.284 | 1.151 | 1.008 | –
101.32 kPa, x1 = 0.1245 | 20.44 | – | – | –
101.32 kPa, x1 = 0.1772 | – | – | – | 28.59

O=S(=O)([O-])NC1CCCCC1.[Rb+] + O
viscosity [mPa·s], 101 kPa
Settings | x1 = 0.00091 | x1 = 0.001356 | x1 = 0.001833 | x1 = 0.002303 | x1 = 0.002722 | x1 = 0.003185 | x1 = 0.003618 | x1 = 0.004055 | x1 = 0.004552
293.15 K | 1.024 | 1.036 | 1.048 | 1.061 | 1.072 | 1.084 | 1.096 | 1.108 | 1.123
298.15 K | 0.9105 | 0.9203 | 0.9315 | 0.9419 | 0.9516 | 0.962 | 0.9723 | 0.9828 | 0.9953
303.15 K | 0.8157 | 0.8243 | 0.8343 | 0.8431 | 0.8516 | 0.8608 | 0.8696 | 0.8789 | 0.8887
313.15 K | 0.6675 | 0.6747 | 0.6824 | 0.6896 | 0.696 | 0.7034 | 0.7104 | 0.7177 | 0.7252
323.15 K | 0.5585 | 0.564 | 0.5704 | 0.5762 | 0.5814 | 0.5874 | 0.5931 | 0.5992 | 0.6057

CCCCOCCOCCO + O=C1CCCN1
298.15 K, 101 kPa
Settings | viscosity [mPa·s]
x1 = 0.0024 | 14.13
x1 = 0.0056 | 14.02
x1 = 0.0086 | 13.96
x1 = 0.012 | 13.86
x1 = 0.0205 | 13.67
x1 = 0.0421 | 13.08
x1 = 0.0638 | 12.61
x1 = 0.0865 | 12.19
x1 = 0.1132 | 11.69
x1 = 0.1508 | 11.11
x1 = 0.1869 | 10.55
x1 = 0.2192 | 10.19
x1 = 0.2979 | 9.265
x1 = 0.3786 | 8.558
x1 = 0.3996 | 8.385
x1 = 0.4122 | 8.298
x1 = 0.4764 | 7.823
x1 = 0.5469 | 7.347
x1 = 0.6024 | 7.035
x1 = 0.6618 | 6.715
x1 = 0.7147 | 6.434
x1 = 0.7823 | 6.121
x1 = 0.8345 | 5.879
x1 = 0.8792 | 5.707
x1 = 0.9066 | 5.597
x1 = 0.9407 | 5.469
x1 = 0.9748 | 5.264
x2 = 0.0063 | 5.156

Cc1cccc(C)c1 + O=C1CCCO1
viscosity [mPa·s], 101.33 kPa
Settings | x2 = 0.1012 | x2 = 0.214 | x2 = 0.3091 | x2 = 0.4022 | x2 = 0.5343 | x2 = 0.5955 | x2 = 0.7101 | x2 = 0.8371 | x2 = 0.9027
293.15 K | 0.69 | 0.777 | 0.859 | 0.948 | 1.093 | 1.169 | 1.332 | 1.544 | 1.671
298.15 K | 0.648 | 0.725 | 0.798 | 0.88 | 1.016 | 1.088 | 1.235 | 1.437 | 1.552
303.15 K | 0.61 | 0.679 | 0.752 | 0.829 | 0.951 | 1.013 | 1.147 | 1.325 | 1.431
308.15 K | 0.573 | 0.636 | 0.692 | 0.761 | 0.875 | 0.936 | 1.06 | 1.226 | 1.323

CC(O)CC(C)(C)O (stereo not drawn) + O=Cc1ccccc1
viscosity [mPa·s], 101 kPa
Settings | x1 = 0.0921 | x1 = 0.1829 | x1 = 0.2762 | x1 = 0.3752 | x1 = 0.4712 | x1 = 0.5787 | x1 = 0.6736 | x1 = 0.775 | x1 = 0.8828
308.15 K | 1.337 | 1.484 | 1.717 | 2.062 | 2.679 | 3.484 | 4.864 | 7.155 | 10.92
318.15 K | 1.004 | 1.149 | 1.368 | 1.7 | 2.157 | 2.801 | 3.804 | 5.903 | 9.45

CC(O)CC(C)(C)O (stereo not drawn) + O=[N+]([O-])c1ccccc1
viscosity [mPa·s], 101 kPa
Settings | x1 = 0.0918 | x1 = 0.1905 | x1 = 0.2926 | x1 = 0.3853 | x1 = 0.4886 | x1 = 0.5862 | x1 = 0.6895 | x1 = 0.7727 | x1 = 0.8991
308.15 K | 1.724 | 1.903 | 2.194 | 2.574 | 3.288 | 4.074 | 5.512 | 7.423 | 12.38
318.15 K | 1.332 | 1.478 | 1.703 | 2.012 | 2.606 | 3.222 | 4.571 | 6.127 | 10.82
